These results are taken from US20250382631A1, “PROTAC-CID SYSTEMS FOR USE IN MULTIPLEX GENE REGULATION” (William Marsh Rice University, priority 2022, published 2025).

A short description of assay [1]: PROTAC-CID inducible EYFP gene activation, flow cytometry. As to conditions: Homo sapiens, HEK-293T, FIG. 13A. Format: cell-based, human. The protocol:
(§1) Fluorescence assay using flow cytometry analysis. Cells were treated with 0.05% Trpsin EDTA (Thermo Fisher Scientific no. 25300054) or TrypLE (Thermo Fisher Scientific no. 12605028) after transfection and centrifuged at 3000 g for 5 min. Supernatant was removed and the cell pellet was resuspended with 200 μL phosphate buffered saline (PBS) without calcium and magnesium (Thermo Fisher Scientific no. 10010023). Cells were transferred into 12×75 mm flow tubes (Global Scientific no. 110410). Cells were analyzed by MA900 flow cytometry (SONY). 405 nm laser (FL6 filter) was used for testing the BFP channel. 488 nm (FL1 filter) was used for testing the EYFP and GFP channel. Automated alignment using Automatic Setup Beads kit (SONY no. LE-B3001) is performed before running samples. In FIGS. 3A, 3B, and 17, experiments were performed under 2% FSC, 17% BSC, 24% FL1. In FIG. 18, experiments were performed under 2% FSC, 17% BSC, 27% FL1. All the other experiments were performed under 2% FSC, 17% BSC, 24% FL1 and 27% FL6. Flow cytometry data was processed and analyzed by FlowJo 10. Events were first gated with forward scatter-Area (FSC-A) and side scatter-Area (SSC-A) to select viable cells and remove the debris and dead cells. Cells were further gated with FSC-A and FSC-Height (FSC-H) for selecting single cells. The mean intensity of the reporter fluorescent protein (BFP and EYFP) in viable and single cell populations were calculated by FlowJo 10 as the mean of FL6-A and FL1-A. When calculating the fold change of relative fluorescence units (RFU), the relative fluorescence units of EYFP was calculated by dividing the mean of fluorescence intensity of EYFP with the mean of BFP fluorescence intensity for normalization as the following formula: […]
(§2) Next, the mean of the normalized relative fluorescence units of induced group were divided by the value of control group for calculating the fold change as the following formula: […]
(§3) Transfection and microscopy. HEK293T cells (American Type Culture Collection, no. CRL-3216) were cultured with high-glucose Dulbecco's modified Eagle's medium (DMEM) (Thermo Fisher Scientific no. 10569044) with 10% fetal bovine serum (FBS) (Thermo Fisher Scientific no. 10437028) and 1×penicillin-streptomycin (Thermo Fisher Scientific no. 15140122) at 37° C. with 5% CO2. Except for the data in FIGS. 3C, 3E, and 3H, cells were plated into 96 well plate (Corning no. 3598) and transfected by Polyethyleneimine Max (PEI Max) (Polysciences no. 24765-1). 1.5 μL PEI Max (1 mg/mL, pH=7.1) and 100 μl DMEM were mixed with plasmids to be slowly dropped into the cell medium after 30 mins of incubation. Medium was changed 12 hours post-transfection. The inductive small molecules, including Rapamycin (STEM CELL technologies no. 73362), dTAG-13 (TOCRIS no. 6605/5), dTAG^V-1 (TOCRIS no. 6744-5), dBRD9 (TOCRIS no. 6606/5), dTRIM24 (TOCRIS no. 6607/5), MZ1 (TOCRIS no. 6154/5), AT1 (TOCRIS no. 6356/5), TL13-12 (TOCRIS no. 6744/5), TL13-112 (TOCRIS no. 6745/5), dTAG-7 (TOCRIS no. 69125), ZXH3-26 (TOCRIS no. 6713/5) and ABA (GoldBio no. A-050-100), dissolved in Dimethyl sulfoxide (DMSO) (Sigma, no. D8418) were added. For the microscopy observation, the images were taken by Microscopy EVOS (Life Technologies) and processed by ImageJ (Schneider et al., 2012). If not otherwise noted, 60 ng of each plasmid were used for each sample.
(§4) Step-by-step fluorescence protein activation assay protocol. Reagents: • 1. PEI Max (Polysciences no. 24765-1) • 2. DMEM, high glucose, GlutaMAX™ Supplement, pyruvate (Thermo Fisher Scientific no. 10569044) • 3. Penicillin-Streptomycin (10,000 U/mL) (Thermo Fisher Scientific no. 15140122) • 4. Fetal Bovine Serum 500ML (FBS) (Thermo Fisher Scientific no. 10437028) • 5. TrypLE™ Express Enzyme (1×), phenol red (Thermo Fisher Scientific no. 12605068) • 6. PBS pH=7.4 (Thermo Fisher Scientific no. 10010023) • 7. Sony sorting chip […] for MA900 (SONY no. LE-C3210) • 8. Automatic Setup Beads kit (SONY no. LE-B3001) • 9. […]
(In general: Flow cytometry measures light scatter and fluorescence of single cells or particles in a stream.)

Assay [2] deals with pUAS-1-driven EYFP expression in HEK293T cells transfected with GAL4- and VPR-fused PROTAC target protein / E3 ubiquitin ligase. Described as above. Format: cell-based, human. As to the method: as §1, §2, §3, §4
Assay [3] concerns isABE system (FRB / FKBP3 fused split ABE8e), EYFP reporter in HEK293T cells. Kind of assay: isABE split adenine base editor, EYFP stop-codon reporter dose response. The assay is classed as cell-based. Conditions: Homo sapiens, HEK-293T; different doses of Rapamycin, FIG. 5J. The source says:
For rapid exploration of inducible ABE variants, the inventors first sought to develop a rapid fluorescence-based reporter system to quantify the ABE efficiency as reported before. The inventors selected target region in eyfp gene with NGG PAM where a CAG codon within the editing window was mutated to TAG stop codon. ABEs convert A to G or T to C, thus allowing the conversion of stop codon to CAG following gRNA binding to untemplated strand. Additionally, there is no other bystander A in the editing window that would cause complex editing to affect the fluorescence expression. The inventors observed a high restoration of the EYFP fluorescence when transfecting HEK293T cells with plasmids encoding the ABE8e fused SpCas9 and guide RNA (FIGS. 5A and 5B). Next, the target range of base editors was restricted by the PAM where the prototypical SpCas9 recognizing target sites with NGG PAM (where N is A, C, G or T). A variant named SpG was identified with an expanded set of NGN PAM. […]
To develop a split adenosine base editor system, the inventors identified two potential split regions based on the crystal structure of ABE8e base editor in complex with guide RNA and target DNA. […] In addition, moderate levels of eYFP signal were detected in both sites. […]

Where [4] appears, read: Table 4 nonlinear regression of EYFP activation, FIG. 13A.
The mark [5] stands for this setting: Table 4 nonlinear regression, FIG. 13A.

Read-outs that look alike come from different tables or passages of the source.

For orientation: EC50 means the concentration that produces a half-maximal response.

As for `CO[C@H]1C[C@@H]2CC[C@@H](C)[C@@](O)(O2)C(=O)C(=O)N2CCCC[C@H]2C(=O)O[C@H]([C@H](C)C[C@@H]2CC[C@@H](O)[C@H](OC)C2)CC(=O)[C@H](C)/C=C(\C)[C@@H](O)[C@@H](OC)C(=O)[C@H](C)C[C@H](C)/C=C/C=C/C=C/1C` [Rapamycin], the EC50 in assay [1] (Table 4 nonlinear regression, Prism 9 [Agonist] vs. response variable slope (four parameters), no unit in table (the source gives nM), read-out: EC50 (best-fit value)) was 6.32 nM. Further, the half-maximal effective concentration (EC50) in assay [1] (dose-response, read-out: EC50 for gene activation) came out at 6 nM. In addition, in assay [2] (setting [4]), the “Bottom (best-fit value)” value came out at 6.692, the “Span (best-fit value)” value is 483.9 and the “Top (best-fit value)” value amounted to 490.6. In addition, in assay [2] (setting [5]), the “Hillslope (best-fit value)” value is 1.871 and the “logEC50 (best-fit value)” value came to 0.8008. Besides, in assay [2] (using FRB and FKBP12, FIG. 1B), the “rapamycin-based gene activation (EYFP)” value was 355 fold. Moreover, it took 1.8 nM to reach a half-maximal effect in assay [3] (EC50).
